Experimental data: patent US7253293B2, “Enzymatic method to produce 7-dehydropregnenolone, vitamin D3-like compounds and derivatives thereof” (priority 2004, dated 2007)

Experiments:
MLN64 and StAR = settings: reconstituted in vitro system; compared with cholesterol; cited from earlier work
Bovine P450scc [1] = target: T1, Bovine P450scc (Bos taurus, UniProt P00189); settings: 2-hydroxypropyl-β-cyclodextrin; cited from earlier work
T1 construct: isolated from adrenals; from tissue; host or cells: bovine adrenals
T1 sequence (P00189 40-520): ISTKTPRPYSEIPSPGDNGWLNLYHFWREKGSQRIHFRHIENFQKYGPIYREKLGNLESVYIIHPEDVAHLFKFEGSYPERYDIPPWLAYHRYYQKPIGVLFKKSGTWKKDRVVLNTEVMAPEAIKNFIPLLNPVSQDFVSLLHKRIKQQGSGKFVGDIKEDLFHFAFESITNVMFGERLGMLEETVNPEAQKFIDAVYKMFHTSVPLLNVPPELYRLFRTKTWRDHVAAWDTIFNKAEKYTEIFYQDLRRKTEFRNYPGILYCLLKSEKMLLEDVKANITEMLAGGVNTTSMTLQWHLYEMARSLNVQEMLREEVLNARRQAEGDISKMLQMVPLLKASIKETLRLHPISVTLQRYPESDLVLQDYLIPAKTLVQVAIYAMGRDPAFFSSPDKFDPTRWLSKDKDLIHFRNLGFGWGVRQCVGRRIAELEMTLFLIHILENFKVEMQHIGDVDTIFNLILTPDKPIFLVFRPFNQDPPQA
T1 sequence (P00257 59-186 partner): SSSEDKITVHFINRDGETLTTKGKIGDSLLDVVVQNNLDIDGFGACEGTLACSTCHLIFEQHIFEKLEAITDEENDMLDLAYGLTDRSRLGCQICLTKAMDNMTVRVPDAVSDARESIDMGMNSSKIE

Bovine P450scc [2] = target: T1, Bovine P450scc; test: Side-chain cleavage kinetics by bovine cytochrome P450scc in phospholipid vesicles; format: biochemical; settings: for kcat: substrate and P450scc in dioleoylphosphatidylcholine vesicles containing cardiolipin, ±SE
Experimental: (§1) Large-scale reactions (50 mL) to cleave the side chain of 7-DHC were performed with purified bovine P450scc and its electron-transfer system in a manner similar to that described for cholesterol (41). The incubation mixture comprised 510 μM phospholipids vesicles (dioleoylphosphatidylcholine plus 15 mol % cardiolipin) with a substrate to phospholipids molar ration of 0.2 50 μM NADPH, 2 mM glucose 6-phosphate, 2 U-mL^−1 glucose 6-phosphate dehydrogenase, 0.3 μM adrenodoxin reductase, 6.5 μM adrenodoxin, 1.0 μM cytochrome P450scc and buffer, pH 7.4 (41). After incubation at 37° C. for 3 h, the mixture was extracted three times with 50 mL methylene chloride and dried under nitrogen at 35° C. Products were purified by preparative TLC on silica gel G with three developments in hexane/ethyl acetate (3:1 v/v) and products eluted from the silica gel with chloroform/methanol (1:1, v/v). Samples were dried under nitrogen and shipped for analysis on dry ice. Small-scale reactions (0.25 mL) to determine the kinetics of 7-DHC and cholesterol metabolism were performed with either bovine or human cytochrome P450scc as described for cholesterol (41). The amount of 7-DHP produced from 7-DHC was measured by RIA [25] using purified 7-DHP as standard.
(§2) Table 2 contains the kinetic parameters for side-cahin cleavage of 7-DHC and cholesterol by bovine and human cytochromes P450scc. Kinetic parameters were determined with substrates and P450scc incorporated into dioleoylphosphatidylcholine (PL) vesicles containing cardiolipin. Values for Kcat and Km are ±SE and are expressed as min^−1 and mol sterol-mol PL^−1, respectively. They were obtained from fitting hyperbolic curves to the kinetic data using KALEIDAGRAPH.

Human P450scc = target: T2, Human P450scc (Homo sapiens, UniProt P05108); test: Side-chain cleavage kinetics by human cytochrome P450scc in phospholipid vesicles; format: biochemical; settings: for kcat: substrate and P450scc in dioleoylphosphatidylcholine vesicles containing cardiolipin, ±SE
T2 construct: made in house; host or cells: Escherichia coli
T2 sequence (P05108 40-521): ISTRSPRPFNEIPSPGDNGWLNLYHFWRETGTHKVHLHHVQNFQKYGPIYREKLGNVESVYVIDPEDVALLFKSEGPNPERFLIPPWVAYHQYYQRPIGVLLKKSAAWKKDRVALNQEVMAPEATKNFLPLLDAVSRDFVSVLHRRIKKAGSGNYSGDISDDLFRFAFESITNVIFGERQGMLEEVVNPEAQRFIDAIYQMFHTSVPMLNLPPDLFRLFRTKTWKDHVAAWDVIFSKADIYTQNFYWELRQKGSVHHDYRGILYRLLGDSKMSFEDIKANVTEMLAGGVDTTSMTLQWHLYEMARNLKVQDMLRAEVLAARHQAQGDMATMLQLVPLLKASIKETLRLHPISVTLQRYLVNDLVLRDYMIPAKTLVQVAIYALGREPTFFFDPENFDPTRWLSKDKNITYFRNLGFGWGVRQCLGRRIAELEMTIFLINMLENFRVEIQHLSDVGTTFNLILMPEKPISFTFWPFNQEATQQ
T2 sequence (P10109 61-184 partner): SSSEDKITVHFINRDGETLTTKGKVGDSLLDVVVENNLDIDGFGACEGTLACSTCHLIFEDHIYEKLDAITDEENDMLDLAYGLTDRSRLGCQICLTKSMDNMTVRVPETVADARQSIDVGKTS
Experimental: as §1
as §2, with “[…].” for “KALEIDAGRAPH.”

[3] = test system: mitochondria from skin cells; test: Side-chain cleavage of radiolabelled cholesterol by mitochondria isolated from skin cells; format: biochemical; settings: for conversion relative to that reported for placental mitochondria: cutaneous mitochondria versus literature value for placental mitochondria
Experimental: Mitochondrial fractions of the test tissue, i.e., skin, adrenals or placenta, were prepared by homogenizing the tissue in 5 vols ice-cold 0.25 M sucrose containing protease inhibitor cocktail (Sigma) (38). The homogenate was centrifuged at 600 g for 10 min at 4° C., and the resulting supernatant was centrifuged at 6000 g (placenta) or 9000 g (skin and adrenals) for 20 min at 4° C. to sediment the mitochondrial fraction. The pellet was resuspended in 0.25 M sucrose, and the mitochondrial fraction was again sedimented under the same conditions. The washed mitochondrial fraction was resuspended in 0.25 M sucrose and used for enzymatic reaction. For cultured skin cells, the above procedure was carried out after the cells had been swelled for 30 min in 20 mM HEPES, pH 7.4, before homogenization.
[4-^14C]Cholesterol (58 mCi.mmol^−1; Amersham Bioscience) was purified before its use as a substrate by mitochondria, by TLC on silica gel G plates in hexane/acetone (7:3, v/v). Isolated mitochondria (0.5 mg protein) were then preincubated (15 min at 37° C.) with purified [4-^14C]cholesterol (1 μCi, 34 μM) in 0.5 mL medium comprising 0.25M sucrose, 50 mM HEPES, pH 7.4, 20 mM KCl, 5 mM MgSO4, 0.2 mM EDTA, 0.4 μM adrenodoxin reductase, 6 μM adrenodoxin, 5 μM N-62 StAR protein (gift from W. Miller, University of California, San Francisco, Calif., USA) and 8 μM cyanoketone. The reaction was started by adding NADPH (0.5 mM) and isocitrate (5 mM), and samples were incubated at 37° C. for 150 min. The reaction was stopped by the addition of 1 mL ice-cold methylene chloride, and the incubation mixture extracted twice more with 1 mL methylene chloride. The fractions were combined, dried under nitrogen, and subjected to TLC on silica gel G plates and developed with hexane/acetone (7:3, v/v). Radiolabelled products were visualized using a phosphoimager, the steroids eluted from the plate with chloroform/methanol (1:1, v/v), and the associated radioactivity measured by scintillation counting.

[4] = cutaneous mitochondria, 34 μM substrate, 150 min at 37° C.

| SMILES | efficiency of transport from donor to acceptor vesicles (MLN64 and StAR) | Vmax compared with cholesterol (Bovine P450scc [1]) | kcat (Bovine P450scc [2]) | kcat relative to that for cholesterol (Bovine P450scc [2]; substrate dissolved in membrane of phospholipid vesicles) | kcat relative to that for cholesterol (Human P450scc) | kcat (Human P450scc) | conversion relative to that reported for placental mitochondria [3] | conversion relative to that reported for placental mitochondria ([3]; listed as [4-^14C]-cholesterol) | rate of conversion into pregnenolone [3, 4] | rate of conversion into progesterone [3, 4] |
| --- | --- | --- | --- | --- | --- | --- | --- | --- | --- | --- |
| CC(C)CCC[C@@H](C)[C@H]1CC[C@H]2C3=CC=C4C[C@@H](O)CC[C@]4(C)[C@H]3CC[C@]12C [7-DHC, cholesta-5,7-dien-3β-ol] | efficiency similar to that for cholesterol | same Vmax for 7-DHC and cholesterol | 0.407 ± 0.0183 s⁻¹ | 62% | 70% | 0.222 ± 0.0067 s⁻¹ |  |  |  |  |
| CC(C)CCC[C@@H](C)[C@H]1CC[C@H]2[C@@H]3CC=C4C[C@@H](O)CC[C@]4(C)[C@H]3CC[C@]12C [Cholesterol, cholesterol] |  |  | 0.655 ± 0.0283 s⁻¹ |  |  | 0.317 ± 0.0067 s⁻¹ |  |  |  |  |
| CC(C)CCC[C@@H](C)[C@H]1CC[C@H]2[C@@H]3CC=C4[14CH2][C@@H](O)CC[C@]4(C)[C@H]3CC[C@]12C [[4-^14C]cholesterol, [4-^14C]Cholesterol] |  |  |  |  |  |  | ~1% | approximately 1% | 0.14% | 0.04% |
